Some test systems named below: RXF 393 renal; UACC-62 melanoma; M14 melanoma; KM12 colon; A498 renal; SK-MEL-2 melanoma; OVCAR-4 ovarian; SW-620 colon; NCI-H460 lung; HCC-2998 colon.
Holding throughout (assay): DTP human tumour cell line panel, 48 h

“And” between values parts separate entries of the source, which are not always exact repeats. Identical values can stand only once.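 96-well plates; 48 h exposure; 5 concentrations. Endpoints by linear interpolation between flanking doses. Not reached: highest tested concentration assigned. GI50 = concentration required for 50% inhibition of growth. TGI marks complete inhibition of growth.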 A value given as a limit tells only on which side of the number the result lay.

Take `CC(C)(C)OC(=O)N(CCCn1c2c(c3ccccc3c1=O)C(=O)c1ccccc1-2)CCN(CCCn1c2c(c3ccccc3c1=O)C(=O)c1ccccc1-2)C(=O)OC(C)(C)C`: the GI50 is 12.6 µM with RXF 393 renal; 45.3 µM in the experiment with UACC-62 melanoma; greater than 50 µM in the experiment with M14 melanoma; greater than 50 µM in the experiment on KM12 colon; greater than 50 µM with A498 renal; greater than 50 µM in the experiment on SK-MEL-2 melanoma. In addition, the values for the GI50 in the experiment with OVCAR-4 ovarian, with SW-620 colon and in the experiment on NCI-H460 lung were greater than 50 µM, 49.1 µM and 27.3 µM, respectively. In addition, the TGI with RXF 393 renal, with UACC-62 melanoma, in the experiment on M14 melanoma, with KM12 colon, with A498 renal and in the experiment with SK-MEL-2 melanoma was greater than 50 µM in each case. Also, the TGI in the experiment with OVCAR-4 ovarian, in the experiment on SW-620 colon and in the experiment with NCI-H460 lung was greater than 50 µM in each case.
Regarding `C=CC1(C)/C(=N\O)C(C)(CC)C(=O)N1O` (centres undefined), the TGI with RXF 393 renal, in the experiment on UACC-62 melanoma, in the experiment with M14 melanoma, with KM12 colon, with A498 renal and in the experiment on SK-MEL-2 melanoma was greater than 100 µM in each case. The TGI with OVCAR-4 ovarian, with SW-620 colon and with NCI-H460 lung was greater than 100 µM in each case.
On to `CCN(CC)CCNc1ccc(CO)c2sc3ccccc3c(=O)c12`, for which the GI50 in the experiment with RXF 393 renal was 2.23 µM and 7.35 µM; in the experiment on UACC-62 melanoma it was 1.94 µM and 11.3 µM; in the experiment on M14 melanoma, 1.99 µM and 12.4 µM and 2.03 µM; in the experiment on A498 renal, 1.26 µM and 6.98 µM and 3.61 µM; in the experiment with OVCAR-4 ovarian it was 2.49 µM and 7.63 µM; in the experiment with SW-620 colon, 4.69 µM. Also, in the experiment with NCI-H460 lung, the GI50 was 3.44 µM. Moreover, the TGI was 8.45 µM and 19 µM and 20.3 µM in the experiment on RXF 393 renal; 4.2 µM and 25.1 µM and 4.3 µM in the experiment on M14 melanoma; 26 µM [middle of 4 runs] with KM12 colon; 18.9 µM [middle of 4 runs] with OVCAR-4 ovarian; 17.4 µM [middle of 4 runs] in the experiment on SW-620 colon; 25.2 µM [middle of 4 runs] with HCC-2998 colon. Also, the TGI in the experiment on NCI-H460 lung was 11 µM and 15.1 µM and 12.2 µM.
For the compound `COc1cccc(C(=O)O)c1Cc1cccc2ccccc12`, the TGI in the experiment with RXF 393 renal, with UACC-62 melanoma, in the experiment on M14 melanoma, with KM12 colon, with SK-MEL-2 melanoma and with OVCAR-4 ovarian was greater than 100 µM in each case. For the same compound, the TGI in the experiment with SW-620 colon, in the experiment with HCC-2998 colon and with NCI-H460 lung was greater than 100 µM in each case.
As to `CC(=O)N1C(=O)C(=O)c2cc(Cl)ccc21`, the TGI in the experiment with RXF 393 renal, with UACC-62 melanoma, with M14 melanoma, in the experiment on KM12 colon, with A498 renal and in the experiment on OVCAR-4 ovarian was greater than 100 µM in each case. The TGI in the experiment on SW-620 colon, with HCC-2998 colon and with NCI-H460 lung was greater than 100 µM each time.
In the case of `CC(=O)c1ccc(NCn2nc(-c3ccccc3O)oc2=S)cc1`, the GI50 was 24.6 µM with RXF 393 renal; 35.8 µM in the experiment on UACC-62 melanoma; greater than 100 µM with M14 melanoma; greater than 100 µM in the experiment on KM12 colon; greater than 100 µM in the experiment on SK-MEL-2 melanoma; 29.8 µM in the experiment on SW-620 colon. The GI50 with HCC-2998 colon was 27.8 µM; in the experiment with NCI-H460 lung it was 39.5 µM. The TGI in the experiment with RXF 393 renal is 72.8 µM; with UACC-62 melanoma, greater than 100 µM; in the experiment with M14 melanoma, greater than 100 µM; in the experiment with KM12 colon, greater than 100 µM; with SK-MEL-2 melanoma it was greater than 100 µM; in the experiment on SW-620 colon it was greater than 100 µM. In addition, the values for the TGI in the experiment with HCC-2998 colon and with NCI-H460 lung were 66.2 µM and greater than 100 µM, respectively.
Take `NC(CCc1nc(-c2ccccc2)cs1)C(=O)O` (centres undefined): the TGI in the experiment with RXF 393 renal, in the experiment on UACC-62 melanoma, in the experiment on M14 melanoma, in the experiment with KM12 colon, with A498 renal and in the experiment on SW-620 colon was greater than 100 µM throughout. Further, the TGI in the experiment with HCC-2998 colon and in the experiment with NCI-H460 lung was greater than 100 µM throughout.
Turning to `O=c1c2ccccc2c(C=NCCNCCO)c2oc3ccccc3n12`, the GI50 is 4.96 µM in the experiment on RXF 393 renal; 11.6 µM in the experiment with UACC-62 melanoma; 15.6 µM with M14 melanoma; 10.4 µM with KM12 colon; 21.3 µM in the experiment with SK-MEL-2 melanoma; 16.6 µM in the experiment with OVCAR-4 ovarian. The values for the GI50 with SW-620 colon, in the experiment with HCC-2998 colon and in the experiment on NCI-H460 lung were 4.63 µM, 13.1 µM and 2.9 µM, respectively. The TGI with RXF 393 renal is 22.6 µM; with UACC-62 melanoma, 23.8 µM; in the experiment on M14 melanoma, 29.5 µM; in the experiment with KM12 colon, 22.1 µM; in the experiment on SK-MEL-2 melanoma it was 50.6 µM; with OVCAR-4 ovarian, 36 µM. Also, the TGI stood at 17 µM in the experiment with SW-620 colon, 25.8 µM with HCC-2998 colon and 11 µM in the experiment with NCI-H460 lung.
Turning to `COC(=O)/C1=C/C2CC(/C=C(/c3ccccc3)C(=O)O1)C2`, the TGI in the experiment on RXF 393 renal was 78 µM; with UACC-62 melanoma, 67.4 µM; with M14 melanoma, greater than 100 µM; in the experiment on KM12 colon it was 62 µM; with SW-620 colon it was greater than 100 µM; with NCI-H460 lung, greater than 100 µM.
As to `COc1cc([N+](=O)[O-])c(S(=O)(=O)O)cc1-n1nc(-c2ccccc2)n[n+]1-c1cc(S(=O)(=O)[O-])c([N+](=O)[O-])cc1OC`, the TGI in the experiment with RXF 393 renal, in the experiment with UACC-62 melanoma, in the experiment on M14 melanoma, in the experiment on KM12 colon, with SK-MEL-2 melanoma and in the experiment on OVCAR-4 ovarian was greater than 100 µM in each case. The TGI in the experiment with SW-620 colon, with HCC-2998 colon and in the experiment with NCI-H460 lung was greater than 100 µM throughout.
In the case of `CCOc1ccc2c(-c3ccnc(Nc4cccc(C(F)(F)F)c4)n3)cnn2n1`, the GI50 with RXF 393 renal was 14.2 µM; in the experiment on UACC-62 melanoma, 11.5 µM; in the experiment on M14 melanoma it was greater than 25 µM; with KM12 colon it was 5.07 µM; in the experiment with A498 renal, 8.2 µM; in the experiment with OVCAR-4 ovarian, 9.46 µM. Moreover, the GI50 with SW-620 colon is greater than 25 µM; with HCC-2998 colon, 22.4 µM; in the experiment on NCI-H460 lung, 9.05 µM. For the same compound, the TGI was greater than 25 µM in the experiment with RXF 393 renal; greater than 25 µM in the experiment with UACC-62 melanoma; greater than 25 µM in the experiment with M14 melanoma; 14 µM in the experiment on KM12 colon; greater than 25 µM with A498 renal; greater than 25 µM in the experiment with OVCAR-4 ovarian. Also, the TGI with SW-620 colon, with HCC-2998 colon and with NCI-H460 lung was greater than 25 µM throughout.

One may read the GI50 as the concentration giving 50% growth inhibition. What is called TGI is the concentration at which net growth stops. Read a low TGI as greater sensitivity of the cells.

Values taken from PubChem BioAssay (NCI).
